Starred links: 1 amine or outer side, 2 acyl side, 3 side chain; linkers in the order of their positions; H or OH if unused. Positions of bridges follow the written chain, without caps; N, C: chain ends. Non-standard residues stand in square brackets, D forms with d. Residues, ends and D or L forms follow the SMILES beside them. *: point of attachment. hTyr(3S-OH,4S-OH,3'-OSO3H) = N[C@H](C(=O)O)[C@H](O)[C@@H](O)c1ccc(O)c(OS(=O)(=O)O)c1; Orn(4R-OH,5R-OH) = O=C([C@H](C[C@@H](O)[C@@H](O)N[*:3])N[*:1])[*:2]; Pro(3S-OH,4S-Me) = C[C@H]1CN[C@H](C(=O)O)[C@H]1O; X1 = CCCCCOc1ccc(-c2cc(-c3ccc(C(=O)*)cc3)no2)cc1; Gln(3R-OH) = NC(=O)C[C@@H](O)[C@H](N)C(=O)O; Hyp = O=C(O)[C@@H]1C[C@@H](O)CN1
Tested on: Rat Primary Kidney Glomerular Endothelial cells
Experiment: Oxygen and glucose deprivation followed by replenishment, cell survival (calcein AM), rat glomerular endothelial cells;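 as to Survival rate (%): 100% is hypoxia control with glucose and 0% is untreated OGD control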
Format: cell-based
Procedure: Anidulafungin and micafungin were tested on Human Renal Glomerular Endothelial Cells (HRGEC, Innoprot P10665), on Human Renal Proximal Tubular Epithelial Cells (HRPTEpiC, Innoprot P10662), on Human Astrocytes (HA, caltag SC-1800), on Human Cardiac Microvascular Endothelial Cells (HCMEC, Caltag SC-6000), on Human Hepatic Sinusoidal Endothelial Cells (HHSEC, Caltag SC-5000), on Rat Primary Kidney Glomerular Endothelial cells (Cellbiologics, RN-6014G) and on Bovine Brain Microvascular Endothelial Cells (BBMEC, Caltag SC-B100).
In a first phase, these isolated, purified and cryopreserved cells are thawed and multiplied according to the supplier's recommendations in T75 or T175 flasks pre-coated with 2 μg of fibronectin/[…] (CORNING) for HRGEC, HCMEC, HHSEC and BBMEC, or 2 μg poly-L-lysin/cm^2 (Caltag SC-0403) for HRPTEpiC and HA, or 15 mL/flask 175 cm^2 gelatin-based solution (Cellbiologics) in the presence of endothelial cell supplemented growth medium ECM (P60104, INNOPROT, Caltag, SC-1001) for HRGEC, HCMEC, HHSEC, RPKGEC or BBMEC, or astrocyte cell supplemented growth medium AM (Caltag SC-1801) for HA or epithelial cell supplemented growth medium EpiCM (P60106, INNOPROT) for HRPTEpiC, at 37° C. under 5% CO2 and saturated humidity until their confluency. They are then harvested by trypsinization according to the method described by the supplier for exactly 5 minutes and then reseeded in new flasks a maximum of three times.
To carry out the oxygen and glucose deprivation test followed by their replenishment, the cells will be seeded in 96-well black plates with transparent flat bottom (GREINER). Once a sufficient number of cells has been obtained to allow seeding of 2000 to 15000 cells per well of 96-well plates depending on the cell type, the cells are seeded in these 96-well plates previously coated with an extracellular matrix as listed above for the flasks. The cells are cultured for 5 to 8 days according to the cell type, in the presence of the same growth medium as in the flask as described above except for HRGEC and HRPTEpiC for which DMEM (DUTSCHER) with 1 g/L of supplemented glucose is used, at 37° C. under 5% CO2 and saturated humidity to obtain confluency.
On the first day of oxygen and glucose deprivation, (5th, 6th, 7th or 8th day of culture), the culture conditions are drastically changed. The medium of all plates is removed and replaced by DMEM (DUTSCHER) medium without glucose and supplemented only with 1% penicillin-streptomycin (DUTSCHER). Anidulafungin or micafungin dissolved in dimethyl sulfoxide (DMSO) is then added to each well at the desired concentration, resulting in a maximum of 1% DMSO, and the plates are placed under hypoxia at <1% 02 and 5% CO2 at 37° C. for 24 hours of culture. Each compound was tested in a concentration range.
After 24 hours, the growth medium is changed and replaced by a richer medium, DMEM (DUTSCHER) at 1 g/L glucose and 2% FBS (INNOPROT) and 1% penicillin-streptomycin (DUTSCHER). These media will have been pre-equilibrated at 37° C. in advance. The cells are then returned to culture at 37° C. under 20% 02 and 5% CO2 for 22h.
After 22 hours of reoxygenation, the potential protective effect of anidulafungin or micafungin is measured by a cell viability test using calcein AM (CORNING), which is a dye substrate. The calcein AM can easily cross the cell membrane of the viable cells. The AM ester groups mask the part of the molecule that chelates calcium. Once inside the cells, the (non-fluorescent) calcein AM is hydrolyzed to (fluorescent) calcein by endogenous esterases. The resulting calcein molecule binds to calcium inside the cell and remains trapped inside the cell. These molecules emit strong green fluorescence when subjected to […] of a particular wavelength (495 nm). Since dead cells lack esterase activity, only living cells are labelled.
This cell viability test is performed in two steps. […]

CCCCCOc1ccc(-c2cc(-c3ccc(C(=O)N[C@H]4C[C@@H](O)[C@@H](O)NC(=O)[C@@H]5[C@@H](O)[C@@H](C)CN5C(=O)[C@H]([C@H](O)CC(N)=O)NC(=O)[C@H]([C@H](O)[C@@H](O)c5ccc(O)c(OS(=O)(=O)O)c5)NC(=O)[C@@H]5C[C@@H](O)CN5C(=O)[C@H]([C@@H](C)O)NC4=O)cc3)no2)cc1 [Micafungin, {5-[(1S,2S)-2-[(3S,6S,9S,11R,15S,18S,20R,21R,24S,25S,26S)-3-[(1R)-2-carbamoyl-1-hydroxyethyl]-11,20,21,25-tetrahydroxy-15-[(1R)-1-hydroxyethyl]-26-methyl-2,5,8,14,17,23-hexaoxo-18-[(4-{5-[4-(pentyloxy)phenyl]-1,2-oxazol-3-yl}benzene)amido]-1,4,7,13,16,22-hexaazatricyclo[22.3.0.0]heptacosan-6-yl]-1,2-dihydroxyethyl]-2-hydroxyphenyl}oxidanesulfonic acid] (X1-[Orn(4R-OH,5R-OH)]T[Hyp][hTyr(3S-OH,4S-OH,3'-OSO3H)][Gln(3R-OH)][Pro(3S-OH,4S-Me)]; lactam 1-C)
Globalfluo assay 1 ([Micafungin] log μM 1.176091): 17307060 arbitrary units
Globalfluo assay 2 ([Micafungin] log μM 1.176091): 19173810 arbitrary units
Globalfluo assay 3 ([Micafungin] log μM 1.176091): 18057880 arbitrary units
Mean globalfluo ([Micafungin] log μM 1.176091): 18179583 arbitrary units
Survival rate (%) ([Micafungin] log μM 1.176091): 57%
Globalfluo assay 1 ([Micafungin] log μM 1.30103): 21761030 arbitrary units
Globalfluo assay 2 ([Micafungin] log μM 1.30103): 21216730 arbitrary units
Globalfluo assay 3 ([Micafungin] log μM 1.30103): 18246850 arbitrary units
Mean globalfluo ([Micafungin] log μM 1.30103): 20408203 arbitrary units
Survival rate (%) ([Micafungin] log μM 1.30103): 66%
Globalfluo assay 1 ([Micafungin] log μM 1.477121): 23916400 arbitrary units
Globalfluo assay 2 ([Micafungin] log μM 1.477121): 22885210 arbitrary units
Globalfluo assay 3 ([Micafungin] log μM 1.477121): 21104460 arbitrary units
Mean globalfluo ([Micafungin] log μM 1.477121): 22635357 arbitrary units
Survival rate (%) ([Micafungin] log μM 1.477121): 75%
Globalfluo assay 1 ([Micafungin] log μM 1.60206): 21279700 arbitrary units
Globalfluo assay 2 ([Micafungin] log μM 1.60206): 21255650 arbitrary units
Globalfluo assay 3 ([Micafungin] log μM 1.60206): 20543100 arbitrary units
Mean globalfluo ([Micafungin] log μM 1.60206): 21026150 arbitrary units
Survival rate (%) ([Micafungin] log μM 1.60206): 69%
Globalfluo assay 1 ([Micafungin] log μM 1.778151): 22384980 arbitrary units
Globalfluo assay 2 ([Micafungin] log μM 1.778151): 24586670 arbitrary units
Globalfluo assay 3 ([Micafungin] log μM 1.778151): 22823930 arbitrary units
Mean globalfluo ([Micafungin] log μM 1.778151): 23265193 arbitrary units
Survival rate (%) ([Micafungin] log μM 1.778151): 78%
Globalfluo assay 1 ([Micafungin] log μM 1.90309): 25482590 arbitrary units
Globalfluo assay 2 ([Micafungin] log μM 1.90309): 16667370 arbitrary units
Globalfluo assay 3 ([Micafungin] log μM 1.90309): 22222960 arbitrary units
Mean globalfluo ([Micafungin] log μM 1.90309): 21457640 arbitrary units
Survival rate (%) ([Micafungin] log μM 1.90309): 71%
Globalfluo assay 1 ([Micafungin] log μM 2): 23318050 arbitrary units
Globalfluo assay 2 ([Micafungin] log μM 2): 20442770 arbitrary units
Globalfluo assay 3 ([Micafungin] log μM 2): 22906760 arbitrary units
Mean globalfluo ([Micafungin] log μM 2): 22222527 arbitrary units
Survival rate (%) ([Micafungin] log μM 2): 74%
Globalfluo assay 1 ([Micafungin] log μM 2.176091): 20166170 arbitrary units
Globalfluo assay 2 ([Micafungin] log μM 2.176091): 24333680 arbitrary units
Globalfluo assay 3 ([Micafungin] log μM 2.176091): 26066530 arbitrary units
Mean globalfluo ([Micafungin] log μM 2.176091): 23522127 arbitrary units
Survival rate (%) ([Micafungin] log μM 2.176091): 79%
Globalfluo assay 1 ([Micafungin] log μM −0.154902): 3831476 arbitrary units
Globalfluo assay 2 ([Micafungin] log μM −0.154902): 4395798 arbitrary units
Globalfluo assay 3 ([Micafungin] log μM −0.154902): 3538568 arbitrary units
Mean globalfluo ([Micafungin] log μM −0.154902): 3921947 arbitrary units
Survival rate (%) ([Micafungin] log μM −0.154902): 0%
Globalfluo assay 1 ([Micafungin] log μM −0.30103): 4962690 arbitrary units
Globalfluo assay 2 ([Micafungin] log μM −0.30103): 4263110 arbitrary units
Globalfluo assay 3 ([Micafungin] log μM −0.30103): 4133198 arbitrary units
Mean globalfluo ([Micafungin] log μM −0.30103): 4452999 arbitrary units
Survival rate (%) ([Micafungin] log μM −0.30103): 2%
Globalfluo assay 1 ([Micafungin] log μM −0.5228788): 4164368 arbitrary units
Globalfluo assay 2 ([Micafungin] log μM −0.5228788): 5246152 arbitrary units
Globalfluo assay 3 ([Micafungin] log μM −0.5228788): 3621246 arbitrary units
Mean globalfluo ([Micafungin] log μM −0.5228788): 4343922 arbitrary units
Survival rate (%) ([Micafungin] log μM −0.5228788): 2%
Globalfluo assay 1 ([Micafungin] log μM −1): 4086038 arbitrary units
Globalfluo assay 2 ([Micafungin] log μM −1): 5779074 arbitrary units
Globalfluo assay 3 ([Micafungin] log μM −1): 4555233 arbitrary units
Mean globalfluo ([Micafungin] log μM −1): 4806782 arbitrary units
Survival rate (%) ([Micafungin] log μM −1): 4%
Globalfluo assay 1 ([Micafungin] log μM −2): 4295861 arbitrary units
Globalfluo assay 2 ([Micafungin] log μM −2): 4126418 arbitrary units
Globalfluo assay 3 ([Micafungin] log μM −2): 4707699 arbitrary units
Mean globalfluo ([Micafungin] log μM −2): 4376659 arbitrary units
Survival rate (%) ([Micafungin] log μM −2): 2%
Globalfluo assay 1 ([Micafungin] log μM −3): 4397869 arbitrary units
Globalfluo assay 2 ([Micafungin] log μM −3): 4804046 arbitrary units
Globalfluo assay 3 ([Micafungin] log μM −3): 3922702 arbitrary units
Mean globalfluo ([Micafungin] log μM −3): 4374872 arbitrary units
Survival rate (%) ([Micafungin] log μM −3): 2%

Reference: patent US11458189B2, “Cytoprotective drugs” (BALMES TRANSPLANTATION, priority 2017, dated 2022)
